Converted amounts (≈) assume the structure as drawn. Like-named read-outs stand apart in the source and are kept apart here.
What was measured:
Type in all cases: cell-based, human
SKOV3 = assay: MTT survival assay, ovarian cancer cell line (SKOV3); conditions: SKOV3 (second table)
Description: (§1) The effect of the above identified compounds on anti-tumor activity in human carcinoma cells was determined by the MTT survival assay. The MTT assay is a commonly used method in evaluation of cell survival, based on the ability of viable cells to convert MTT (MTT, Sigma, Cat No. 044K5307), a soluble tetrazolium salt [3-(4,5-dimethylthuazole-2-yl)-2,5 diphenyl tetrazolium bromide], into an insoluble formazan precipitate, which is quantitated by spectrophotometry following solubilization in dimethyl sulfoxide (DMSO).
(§2) In brief, different carcinoma cells were treated with negative control, various test articles at different concentration, and positive control (DDP), in 96-well tissue culture dishes. Each test article at different concentration is repeated 3 times.
(§3) Different carcinoma cells were diluted with 10% FBS and RPM1640 or MEM media to a concentration of 3-5×10^4 per ml suspension. 100 microliter of cells were incubated in each well in 96-well tissue culture dishes at 37 C. The cells were incubated at 37 C on the first day. On the second day, media supernatant was removed and replaced with media and different concentration of test articles (100 microliter in each well). Three Negative control wells and three positive control (DDP) wells were also included. The 96-well plate were incubated at 37 C for another 68 hours. After 68 hours, supernatant of each well was removed. 100 microliter of 1 mg/ml MTT diluted in PBS was injected into each well. The cells were incubated at 37 C for another 4 hours. The cells were then solubilized in 150 microliter DMSO, mixed for 10 minutes and absorbance readings were taken using Microplate reader Bio-Rad Model 550 at 570 nm. IR (cell growth inhibition rate) % was calculated as (OD570 of negative control-OD570 with test article)/OD570 of negative control. IC50 (cell 50% inhibition concentration) at 95% confidence level was calculated with Bliss method.

A459 = assay: MTT survival assay, lung cancer cell line (A459); conditions: A459 Experiment #2; for IC50: Homo sapiens
Description: as §1, §2, §3

SMMC-7721 = assay: MTT survival assay, liver cancer cell line (SMMC-7721); conditions: SMMC-7721 Experiment #2; for IC50: Homo sapiens
Description: as §1, §2, §3

Hela cells = assay: MTT survival assay, cervical cancer line (Hela cells); conditions: for IC50: Homo sapiens
Description: as §1, §2, §3

U251 = assay: MTT survival assay, glioma cell line (brain tumor U251); conditions: U251 (second table)
Description: as §1, §2, §3

MCF-7 = assay: MTT survival assay, breast cancer cell line (MCF-7); conditions: for IC50: Homo sapiens
Description: as §1, §2, §3

[1] = 95% confidence limits of IC50, read-out: IC50 (95% confidence level), interval
[2] = Bliss method, unit not printed (concentrations in μg/ml), read-out: IC50 (95% confidence level)

Cc1ccc(S(=O)(=O)NCC(=O)NCC(c2ccccc2)c2c[nH]c3ccccc23)cc1 (centres unmarked) [Mol 640]
IC50 (SKOV3; Homo sapiens, SK-OV-3, Bliss method, unit not printed (concentrations in μg/ml), read-out: IC50 (95% confidence level)): 26.9 µg/mL (≈ 60 µM) | IR (%) (SKOV3; 3.125 μg/ml): 0% | OD(A570 nm) (SKOV3; 3.125 μg/ml): 0.716 ± 0.048 | IR (%) (SKOV3; 6.25 μg/ml): 10.3% | OD(A570 nm) (SKOV3; 6.25 μg/ml): 0.628 ± 0.025 | IR (%) (SKOV3; 12.5 μg/ml): 9.7% | OD(A570 nm) (SKOV3; 12.5 μg/ml): 0.632 ± 0.020 | IR (%) (SKOV3; 25 μg/ml): 43.8% | OD(A570 nm) (SKOV3; 25 μg/ml): 0.394 ± 0.037 | IR (%) (SKOV3; 50 μg/ml): 88.3% | OD(A570 nm) (SKOV3; 50 μg/ml): 0.082 ± 0.008 | IR (%) (SKOV3; 100 μg/ml): 88.7% | OD(A570 nm) (SKOV3; 100 μg/ml): 0.079 ± 0.010 | IR (%) (A459; 3.125 μg/ml): −22.6% | OD(A570 nm) (A459; 3.125 μg/ml): 0.781 ± 0.040 | IR (%) (A459; 6.25 μg/ml): −12.5% | OD(A570 nm) (A459; 6.25 μg/ml): 0.717 ± 0.020 | IR (%) (A459; 12.5 μg/ml): 6.9% | OD(A570 nm) (A459; 12.5 μg/ml): 0.593 ± 0.034 | IR (%) (A459; 25 μg/ml): 63.6% | OD(A570 nm) (A459; 25 μg/ml): 0.232 ± 0.006 | IR (%) (A459; 50 μg/ml): 87.2% | OD(A570 nm) (A459; 50 μg/ml): 0.081 ± 0.010 | IR (%) (A459; 100 μg/ml): 87.1% | OD(A570 nm) (A459; 100 μg/ml): 0.082 ± 0.014 | IC50 (A459; [1]): 25.5 to 26.1 µg/mL (≈ 57 to 58.4 µM) | IC50 (A459; [2]): 25.8 µg/mL (≈ 57.7 µM) | IC50 (SMMC-7721; [1]): 7.68 to 8.36 µg/mL (≈ 17.2 to 18.7 µM) | IC50 (SMMC-7721; [2]): 8.02 µg/mL (≈ 17.9 µM) | IR (%) (SMMC-7721; 3.125 μg/ml): 53.4% | OD(A570 nm) (SMMC-7721; 3.125 μg/ml): 0.215 ± 0.008 | IR (%) (SMMC-7721; 6.25 μg/ml): 39.8% | OD(A570 nm) (SMMC-7721; 6.25 μg/ml): 0.278 ± 0.013 | IR (%) (SMMC-7721; 12.5 μg/ml): 41.9% | OD(A570 nm) (SMMC-7721; 12.5 μg/ml): 0.268 ± 0.013 | IR (%) (SMMC-7721; 25 μg/ml): 56.6% | OD(A570 nm) (SMMC-7721; 25 μg/ml): 0.200 ± 0.002 | IR (%) (SMMC-7721; 50 μg/ml): 80.2% | OD(A570 nm) (SMMC-7721; 50 μg/ml): 0.091 ± 0.002 | IR (%) (SMMC-7721; 100 μg/ml): 78.7% | OD(A570 nm) (SMMC-7721; 100 μg/ml): 0.098 ± 0.014 | IR (%) (Hela cells; 0.41 μg/ml): 12.3% | OD(A570 nm) (Hela cells; 0.41 μg/ml): 0.651 ± 0.044 | OD(A570 nm) (Hela cells; 1.23 μg/ml): 0.826 ± 0.101 | OD(A570 nm) (Hela cells; 3.70 μg/ml): 0.819 ± 0.085 | IR (%) (Hela cells; 11.11 μg/ml): 12.2% | OD(A570 nm) (Hela cells; 11.11 μg/ml): 0.652 ± 0.057 | IR (%) (Hela cells; 33.33 μg/ml): 76.8% | OD(A570 nm) (Hela cells; 33.33 μg/ml): 0.172 ± 0.010 | IR (%) (Hela cells; 100 μg/ml): 89.5% | OD(A570 nm) (Hela cells; 100 μg/ml): 0.078 ± 0.023 | IC50 (Hela cells; [1]): 21.9 to 29.1 µg/mL (≈ 49 to 65.1 µM) | IC50 (Hela cells; [2]): 25.3 µg/mL (≈ 56.4 µM) | IC50 (U251; Homo sapiens, U-251, Bliss method, unit not printed (concentrations in μg/ml), read-out: IC50 (95% confidence level)): 11.7 µg/mL (≈ 26 µM) | IR (%) (U251; 3.125 μg/ml): 9.2% | OD(A570 nm) (U251; 3.125 μg/ml): 0.796 ± 0.055 | IR (%) (U251; 6.25 μg/ml): 20.6% | OD(A570 nm) (U251; 6.25 μg/ml): 0.696 ± 0.054 | IR (%) (U251; 12.5 μg/ml): 59.6% | OD(A570 nm) (U251; 12.5 μg/ml): 0.354 ± 0.021 | IR (%) (U251; 25 μg/ml): 90.3% | OD(A570 nm) (U251; 25 μg/ml): 0.085 ± 0.012 | IR (%) (U251; 50 μg/ml): 90.1% | OD(A570 nm) (U251; 50 μg/ml): 0.087 ± 0.012 | IR (%) (U251; 100 μg/ml): 89.7% | OD(A570 nm) (U251; 100 μg/ml): 0.090 ± 0.014 | IR (%) (MCF-7; 3.125 μg/ml): 10.5% | OD(A570 nm) (MCF-7; 3.125 μg/ml): 0.807 ± 0.016 | IR (%) (MCF-7; 6.25 μg/ml): 21.5% | OD(A570 nm) (MCF-7; 6.25 μg/ml): 0.708 ± 0.058 | IR (%) (MCF-7; 12.5 μg/ml): 28.1% | OD(A570 nm) (MCF-7; 12.5 μg/ml): 0.649 ± 0.036 | IR (%) (MCF-7; 25 μg/ml): 89.6% | OD(A570 nm) (MCF-7; 25 μg/ml): 0.094 ± 0.012 | IR (%) (MCF-7; 50 μg/ml): 89.1% | OD(A570 nm) (MCF-7; 50 μg/ml): 0.098 ± 0.012 | IR (%) (MCF-7; 100 μg/ml): 92.3% | OD(A570 nm) (MCF-7; 100 μg/ml): 0.069 ± 0.007 | IC50 (MCF-7; MCF7, 95% confidence limits of IC50, read-out: IC50 (95% confidence level), interval): 12.3 to 16.1 µg/mL (≈ 27.6 to 36 µM) | IC50 (MCF-7; MCF7, Bliss method, unit not printed (concentrations in μg/ml), read-out: IC50 (95% confidence level)): 14.1 µg/mL (≈ 31.5 µM)
